Assays:
Test in all cases: Kinase profiling
Type in all cases: biochemical
ACTR2(h) = target: T1, ACTR2(h) (Homo sapiens, UniProt P27037)
T1 construct: purchased Eurofins Cerep SA (KinaseProfiler)
Description: (§1) 380 kinases inhibitory activities of SKLB-D18 were conducted by Eurofins Cerep SA. The result was illustrated by kinase tree (http://www.kinhub.org/kinmap/).

ATM(h) = target: T2, ATM(h) (Homo sapiens, UniProt Q13315)
T2 construct: purchased Eurofins Cerep SA (KinaseProfiler)
Description: as §1

BTK(h) = target: T3, BTK(h) (Homo sapiens, UniProt Q06187)
T3 construct: purchased Eurofins Cerep SA (KinaseProfiler)
Description: as §1

CDK3/cyclinE(h) = target: T4, CDK3/cyclinE(h) (Homo sapiens, UniProt Q00526)
T4 construct: purchased Eurofins Cerep SA (KinaseProfiler)
T4 sequence (Q00526 whole entry): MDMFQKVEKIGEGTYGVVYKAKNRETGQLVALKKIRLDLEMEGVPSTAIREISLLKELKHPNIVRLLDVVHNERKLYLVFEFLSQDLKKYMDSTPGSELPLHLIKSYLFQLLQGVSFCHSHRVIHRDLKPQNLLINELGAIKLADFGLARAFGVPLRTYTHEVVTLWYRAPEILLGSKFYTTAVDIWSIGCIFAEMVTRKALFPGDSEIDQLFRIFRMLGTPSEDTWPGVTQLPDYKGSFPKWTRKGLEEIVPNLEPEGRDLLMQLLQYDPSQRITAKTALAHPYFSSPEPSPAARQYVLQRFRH
T4 sequence (P24864 whole entry partner): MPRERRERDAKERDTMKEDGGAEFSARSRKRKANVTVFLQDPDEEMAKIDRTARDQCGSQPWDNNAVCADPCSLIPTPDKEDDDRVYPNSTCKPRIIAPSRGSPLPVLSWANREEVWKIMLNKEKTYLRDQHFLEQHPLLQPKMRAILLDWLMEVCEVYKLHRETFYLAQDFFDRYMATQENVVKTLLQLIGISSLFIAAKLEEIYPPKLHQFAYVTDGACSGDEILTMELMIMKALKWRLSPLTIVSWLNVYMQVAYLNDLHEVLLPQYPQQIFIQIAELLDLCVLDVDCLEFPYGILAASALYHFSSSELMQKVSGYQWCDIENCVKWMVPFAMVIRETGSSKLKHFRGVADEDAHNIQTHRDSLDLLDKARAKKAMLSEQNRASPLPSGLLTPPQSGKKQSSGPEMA
Description: as §1

CDK5/p35(h) = target: T5, CDK5/p35(h) (Homo sapiens, UniProt Q00535)
T5 construct: purchased Eurofins Cerep SA (KinaseProfiler)
Description: as §1

CDKL2(h) = target: T6, CDKL2(h) (Homo sapiens, UniProt Q92772)
T6 construct: purchased Eurofins Cerep SA (KinaseProfiler)
Description: as §1

CDKL3(h) = target: T7, CDKL3(h) (Homo sapiens, UniProt Q8IVW4)
T7 construct: purchased Eurofins Cerep SA (KinaseProfiler)
Description: as §1

CK2(h) = target: T8, CK2(h) (Homo sapiens, UniProt P68400)
T8 construct: purchased Eurofins Cerep SA (KinaseProfiler)
Description: as §1

CLIK1(h) = target: T9, CLIK1(h) (Homo sapiens, UniProt Q8TDR2)
T9 construct: purchased Eurofins Cerep SA (KinaseProfiler)
T9 sequence (Q8TDR2 whole entry): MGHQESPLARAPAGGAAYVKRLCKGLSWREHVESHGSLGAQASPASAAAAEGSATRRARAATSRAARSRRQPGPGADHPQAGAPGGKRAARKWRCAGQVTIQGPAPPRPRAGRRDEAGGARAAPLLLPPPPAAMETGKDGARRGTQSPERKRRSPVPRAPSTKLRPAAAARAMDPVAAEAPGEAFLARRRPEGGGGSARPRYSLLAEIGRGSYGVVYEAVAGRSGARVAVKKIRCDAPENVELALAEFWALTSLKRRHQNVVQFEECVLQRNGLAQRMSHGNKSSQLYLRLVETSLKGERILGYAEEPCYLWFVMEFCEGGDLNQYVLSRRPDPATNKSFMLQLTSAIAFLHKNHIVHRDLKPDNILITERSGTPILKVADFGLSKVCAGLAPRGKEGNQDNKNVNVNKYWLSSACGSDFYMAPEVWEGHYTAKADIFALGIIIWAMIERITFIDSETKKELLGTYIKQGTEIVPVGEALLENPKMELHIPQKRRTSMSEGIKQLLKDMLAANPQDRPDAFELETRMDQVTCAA
Description: as §1

CLK1(h) = target: T10, CLK1(h) (Homo sapiens, UniProt P49759)
T10 construct: purchased Eurofins Cerep SA (KinaseProfiler)
Description: as §1

CLK2(h) = target: T11, CLK2(h) (Homo sapiens, UniProt P49760)
T11 construct: purchased Eurofins Cerep SA (KinaseProfiler)
Description: as §1

COT(h) = target: T12, COT(h) (Homo sapiens, UniProt P41279)
T12 construct: purchased Eurofins Cerep SA (KinaseProfiler)
T12 sequence (P41279 whole entry): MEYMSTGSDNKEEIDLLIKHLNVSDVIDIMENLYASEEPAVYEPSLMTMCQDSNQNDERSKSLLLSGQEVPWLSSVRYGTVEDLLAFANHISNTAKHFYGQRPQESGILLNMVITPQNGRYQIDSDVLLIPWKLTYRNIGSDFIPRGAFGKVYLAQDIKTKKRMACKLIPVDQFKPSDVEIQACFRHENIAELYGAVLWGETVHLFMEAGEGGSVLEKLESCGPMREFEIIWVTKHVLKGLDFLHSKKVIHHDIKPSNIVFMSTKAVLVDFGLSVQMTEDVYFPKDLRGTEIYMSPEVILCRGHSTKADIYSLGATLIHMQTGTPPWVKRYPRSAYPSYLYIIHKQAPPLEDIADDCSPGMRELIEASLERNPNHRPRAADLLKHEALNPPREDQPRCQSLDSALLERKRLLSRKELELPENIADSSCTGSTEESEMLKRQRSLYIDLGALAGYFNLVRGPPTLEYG
Description: as §1

DCAMKL1(h) = target: T13, DCAMKL1(h) (Homo sapiens, UniProt O15075)
T13 construct: purchased Eurofins Cerep SA (KinaseProfiler)
T13 sequence (O15075 whole entry): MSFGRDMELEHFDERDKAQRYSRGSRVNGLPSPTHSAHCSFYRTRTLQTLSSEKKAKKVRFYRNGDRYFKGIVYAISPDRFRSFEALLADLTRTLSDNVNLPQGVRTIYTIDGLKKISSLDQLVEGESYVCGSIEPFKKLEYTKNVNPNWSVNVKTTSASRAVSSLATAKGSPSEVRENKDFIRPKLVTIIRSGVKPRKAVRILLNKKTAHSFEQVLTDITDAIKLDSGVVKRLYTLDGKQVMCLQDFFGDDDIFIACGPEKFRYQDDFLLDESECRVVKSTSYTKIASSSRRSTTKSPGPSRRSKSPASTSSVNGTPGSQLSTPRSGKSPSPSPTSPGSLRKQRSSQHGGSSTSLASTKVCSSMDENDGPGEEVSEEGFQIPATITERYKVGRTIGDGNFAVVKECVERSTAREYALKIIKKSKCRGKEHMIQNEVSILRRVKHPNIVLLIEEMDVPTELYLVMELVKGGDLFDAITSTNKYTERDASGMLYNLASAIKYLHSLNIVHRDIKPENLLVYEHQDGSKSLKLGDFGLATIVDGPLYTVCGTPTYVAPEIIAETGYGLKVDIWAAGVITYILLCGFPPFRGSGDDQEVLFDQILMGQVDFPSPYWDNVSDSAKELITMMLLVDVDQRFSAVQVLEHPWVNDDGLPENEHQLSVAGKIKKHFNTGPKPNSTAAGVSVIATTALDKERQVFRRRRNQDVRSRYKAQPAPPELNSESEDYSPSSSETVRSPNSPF
Description: as §1

HPK1(h) = target: T14, HPK1(h) (Homo sapiens, UniProt Q92918)
T14 construct: purchased Eurofins Cerep SA (KinaseProfiler)
Description: as §1

LOK(h) = target: T15, LOK(h) (Homo sapiens, UniProt O94804)
T15 construct: purchased Eurofins Cerep SA (KinaseProfiler)
Description: as §1

MAPK1(h) = target: T16, MAPK1(h) (Homo sapiens, UniProt P28482)
T16 construct: purchased Eurofins Cerep SA (KinaseProfiler)
Description: as §1

MEKK2(h) = target: T17, MEKK2(h) (Homo sapiens, UniProt Q9Y2U5)
T17 construct: purchased Eurofins Cerep SA (KinaseProfiler)
Description: as §1

MEKK3(h) = target: T18, MEKK3(h) (Homo sapiens, UniProt Q99759)
T18 construct: purchased Eurofins Cerep SA (KinaseProfiler)
Description: as §1

MLCK(h) = target: T19, MLCK(h) (Homo sapiens, UniProt Q9H1R3)
T19 construct: purchased Eurofins Cerep SA (KinaseProfiler)
Description: as §1

MLK1(h) = target: T20, MLK1(h) (Homo sapiens, UniProt P80192)
T20 construct: purchased Eurofins Cerep SA (KinaseProfiler)
Description: as §1

MST1(h) = target: T21, MST1(h) (Homo sapiens, UniProt Q13043)
T21 construct: purchased Eurofins Cerep SA (KinaseProfiler)
Description: as §1

Mnk1(h) = target: T22, Mnk1(h) (Homo sapiens, UniProt Q9BUB5)
T22 construct: purchased Eurofins Cerep SA (KinaseProfiler)
T22 sequence (Q9BUB5 whole entry): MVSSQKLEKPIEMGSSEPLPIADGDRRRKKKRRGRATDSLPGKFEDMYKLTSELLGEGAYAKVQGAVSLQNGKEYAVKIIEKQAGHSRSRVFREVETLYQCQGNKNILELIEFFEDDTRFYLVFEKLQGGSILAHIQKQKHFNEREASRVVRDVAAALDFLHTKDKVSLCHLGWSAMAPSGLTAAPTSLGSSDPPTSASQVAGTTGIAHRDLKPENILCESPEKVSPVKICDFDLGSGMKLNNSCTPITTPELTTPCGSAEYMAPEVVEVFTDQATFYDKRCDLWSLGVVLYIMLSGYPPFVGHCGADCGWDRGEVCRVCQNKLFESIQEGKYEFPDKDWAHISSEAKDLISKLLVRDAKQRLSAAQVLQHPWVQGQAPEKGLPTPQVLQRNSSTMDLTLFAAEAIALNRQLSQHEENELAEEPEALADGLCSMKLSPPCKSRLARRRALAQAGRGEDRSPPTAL
Description: as §1

MuSK(h) = target: T23, MuSK(h) (Homo sapiens, UniProt O15146)
T23 construct: purchased Eurofins Cerep SA (KinaseProfiler)
Description: as §1

NEK5(h) = target: T24, NEK5(h) (Homo sapiens, UniProt Q6P3R8)
T24 construct: purchased Eurofins Cerep SA (KinaseProfiler)
Description: as §1

NUAK2(h) = target: T25, NUAK2(h) (Homo sapiens, UniProt Q9H093)
T25 construct: purchased Eurofins Cerep SA (KinaseProfiler)
Description: as §1

PKBγ(h) = target: T26, PKBγ(h) (Homo sapiens, UniProt Q9Y243)
T26 construct: purchased Eurofins Cerep SA (KinaseProfiler)
Description: as §1

PKCβII(h) = target: T27, PKCβII(h) (Homo sapiens, UniProt P05771)
T27 construct: purchased Eurofins Cerep SA (KinaseProfiler)
Description: as §1

PKCγ(h) = target: T28, PKCγ(h) (Homo sapiens, UniProt P05129)
T28 construct: purchased Eurofins Cerep SA (KinaseProfiler)
Description: as §1

PKG1α(h) = target: T29, PKG1α(h) (Homo sapiens, UniProt Q13976)
T29 construct: purchased Eurofins Cerep SA (KinaseProfiler)
Description: as §1

Plk3(h) = target: T30, Plk3(h) (Homo sapiens, UniProt Q9H4B4)
T30 construct: purchased Eurofins Cerep SA (KinaseProfiler)
Description: as §1

ROCK-I(h) = target: T31, ROCK-I(h) (Homo sapiens, UniProt Q13464)
T31 construct: purchased Eurofins Cerep SA (KinaseProfiler)
Description: as §1

Ret(h) = target: T32, Ret(h) (Homo sapiens, UniProt P07949)
T32 construct: purchased Eurofins Cerep SA (KinaseProfiler)
Description: as §1

Rse(h) = target: T33, Rse(h) (Homo sapiens, UniProt Q06418)
T33 construct: purchased Eurofins Cerep SA (KinaseProfiler)
Description: as §1

SAPK2a(h) = target: T34, SAPK2a(h) (Homo sapiens, UniProt Q16539)
T34 construct: purchased Eurofins Cerep SA (KinaseProfiler)
T34 sequence (Q16539 whole entry): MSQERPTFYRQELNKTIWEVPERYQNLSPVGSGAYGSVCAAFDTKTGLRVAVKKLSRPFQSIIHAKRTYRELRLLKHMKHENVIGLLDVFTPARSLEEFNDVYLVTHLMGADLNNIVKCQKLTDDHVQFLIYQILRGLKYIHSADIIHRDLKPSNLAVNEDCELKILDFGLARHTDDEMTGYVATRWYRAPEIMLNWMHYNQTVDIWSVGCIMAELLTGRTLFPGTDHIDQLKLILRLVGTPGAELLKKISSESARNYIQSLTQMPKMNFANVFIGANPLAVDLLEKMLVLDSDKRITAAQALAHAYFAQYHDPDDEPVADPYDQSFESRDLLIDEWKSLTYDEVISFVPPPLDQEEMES
Description: as §1

SIK3(h) = target: T35, SIK3(h) (Homo sapiens, UniProt Q9Y2K2)
T35 construct: purchased Eurofins Cerep SA (KinaseProfiler)
Description: as §1

TGFBR2(h) = target: T36, TGFBR2(h) (Homo sapiens, UniProt P37173)
T36 construct: purchased Eurofins Cerep SA (KinaseProfiler)
T36 sequence (P37173 23-567): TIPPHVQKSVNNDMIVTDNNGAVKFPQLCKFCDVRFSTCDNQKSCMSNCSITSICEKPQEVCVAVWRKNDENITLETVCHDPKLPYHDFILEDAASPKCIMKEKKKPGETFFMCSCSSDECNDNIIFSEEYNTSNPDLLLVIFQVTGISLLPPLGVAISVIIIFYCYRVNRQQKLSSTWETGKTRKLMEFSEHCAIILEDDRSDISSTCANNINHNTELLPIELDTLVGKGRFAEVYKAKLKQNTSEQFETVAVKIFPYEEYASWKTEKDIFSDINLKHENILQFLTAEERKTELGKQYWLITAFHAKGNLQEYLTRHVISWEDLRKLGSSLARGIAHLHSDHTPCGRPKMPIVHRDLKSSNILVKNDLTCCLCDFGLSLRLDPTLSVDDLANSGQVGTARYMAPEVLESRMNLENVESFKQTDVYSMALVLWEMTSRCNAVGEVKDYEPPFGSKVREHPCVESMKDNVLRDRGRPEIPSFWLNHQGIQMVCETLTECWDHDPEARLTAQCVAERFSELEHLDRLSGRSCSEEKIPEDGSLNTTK
Description: as §1

TSSK1(h) = target: T37, TSSK1(h) (Homo sapiens, UniProt Q9BXA7)
T37 construct: purchased Eurofins Cerep SA (KinaseProfiler)
Description: as §1

WNK1(h) = target: T38, WNK1(h) (Homo sapiens, UniProt Q9H4A3)
T38 construct: purchased Eurofins Cerep SA (KinaseProfiler)
Description: as §1

ZAP-70(h) = target: T39, ZAP-70(h) (Homo sapiens, UniProt P43403)
T39 construct: purchased Eurofins Cerep SA (KinaseProfiler)
Description: as §1

c-RAF(h) = target: T40, c-RAF(h) (Homo sapiens, UniProt P04049)
T40 construct: purchased Eurofins Cerep SA (KinaseProfiler)
T40 sequence (P04049 whole entry): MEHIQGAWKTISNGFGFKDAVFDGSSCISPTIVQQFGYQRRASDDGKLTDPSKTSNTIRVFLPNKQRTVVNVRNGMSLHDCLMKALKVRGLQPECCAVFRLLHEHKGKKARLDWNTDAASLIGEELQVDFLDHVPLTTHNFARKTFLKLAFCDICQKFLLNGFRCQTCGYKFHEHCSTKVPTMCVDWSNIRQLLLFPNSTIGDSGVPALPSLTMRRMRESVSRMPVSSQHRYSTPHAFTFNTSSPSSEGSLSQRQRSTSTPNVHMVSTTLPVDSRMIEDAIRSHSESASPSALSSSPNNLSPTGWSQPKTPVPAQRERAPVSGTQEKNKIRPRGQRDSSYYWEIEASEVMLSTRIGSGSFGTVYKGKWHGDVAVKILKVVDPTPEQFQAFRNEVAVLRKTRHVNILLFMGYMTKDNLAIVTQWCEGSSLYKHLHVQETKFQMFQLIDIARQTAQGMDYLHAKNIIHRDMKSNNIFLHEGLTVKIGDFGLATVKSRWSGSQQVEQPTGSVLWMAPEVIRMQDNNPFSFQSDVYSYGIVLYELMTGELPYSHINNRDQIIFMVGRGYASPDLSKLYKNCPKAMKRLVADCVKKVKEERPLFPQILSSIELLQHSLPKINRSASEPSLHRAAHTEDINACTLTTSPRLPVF
Description: as §1

p70S6Kβ(h) = target: T41, p70S6Kβ(h) (Homo sapiens, UniProt Q9UBS0)
T41 construct: purchased Eurofins Cerep SA (KinaseProfiler)
Description: as §1

T1 sequence (P27037 20-513): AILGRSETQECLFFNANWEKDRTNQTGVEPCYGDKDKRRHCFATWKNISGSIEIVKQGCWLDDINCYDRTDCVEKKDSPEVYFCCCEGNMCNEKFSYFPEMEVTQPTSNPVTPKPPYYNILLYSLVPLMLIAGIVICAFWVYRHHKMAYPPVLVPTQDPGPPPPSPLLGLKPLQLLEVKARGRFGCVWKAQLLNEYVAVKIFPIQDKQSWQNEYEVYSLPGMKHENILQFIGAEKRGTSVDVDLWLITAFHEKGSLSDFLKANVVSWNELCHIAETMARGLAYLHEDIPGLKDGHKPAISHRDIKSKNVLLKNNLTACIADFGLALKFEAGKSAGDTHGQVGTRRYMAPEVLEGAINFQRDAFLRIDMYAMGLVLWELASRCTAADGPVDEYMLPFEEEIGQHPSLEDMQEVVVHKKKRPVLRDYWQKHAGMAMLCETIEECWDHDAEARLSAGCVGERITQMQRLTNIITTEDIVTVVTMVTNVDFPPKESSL

With `CN(C)Cc1cccc(Nc2ncc(Cl)c(-c3csc(C(=O)NN4CCOCC4)c3)n2)c1` [SKLB-D18, 4-(5-chloro-2-((3-((dimethylamino)methyl)phenyl)amino)pyrimidin-4-yl)-N-morpholinothiophene-2-carboxamide] the inhibition at 1 µM (ACTR2(h)) was 10%, the inhibition at 1 µM (ATM(h)) was 7% and the inhibition at 1 µM (BTK(h)) was 8%. For the same molecule, the inhibition at 1 µM (CDK3/cyclinE(h)) was 16%, the inhibition at 1 µM (CDK5/p35(h)) was 57% and the inhibition at 1 µM (CDKL2(h)) was 39%. For the same molecule, the inhibition at 1 µM (CDKL3(h)) was 54%, the inhibition at 1 µM (CK2(h)) was 68% and the inhibition at 1 µM (CLIK1(h)) was 12%. The inhibition at 1 µM (CLK1(h)) was 17%, the inhibition at 1 µM (CLK2(h)) was 58% and the inhibition at 1 µM (COT(h)) was -5%. For the same molecule, the inhibition at 1 µM (DCAMKL1(h)) was 17%, the inhibition at 1 µM (HPK1(h)) was 68% and the inhibition at 1 µM (LOK(h)) was 2%. The inhibition at 1 µM (MAPK1(h)) was 94%, the inhibition at 1 µM (MEKK2(h)) was 53% and the inhibition at 1 µM (MEKK3(h)) was 8%. It also gave an inhibition at 1 µM (MLCK(h)) of 16%, an inhibition at 1 µM (MLK1(h)) of 61% and an inhibition at 1 µM (MST1(h)) of 45%. For the same molecule, the inhibition at 1 µM (Mnk1(h)) was 62%, the inhibition at 1 µM (MuSK(h)) was 20% and the inhibition at 1 µM (NEK5(h)) was 68%. It also gave an inhibition at 1 µM (NUAK2(h)) of 67%, an inhibition at 1 µM (PKBγ(h)) of 14% and an inhibition at 1 µM (PKCβII(h)) of 28%. For the same molecule, the inhibition at 1 µM (PKCγ(h)) was 27%, the inhibition at 1 µM (PKG1α(h)) was 9% and the inhibition at 1 µM (Plk3(h)) was 6%. For the same molecule, the inhibition at 1 µM (ROCK-I(h)) was 10%, the inhibition at 1 µM (Ret(h)) was 81% and the inhibition at 1 µM (Rse(h)) was 12%. The inhibition at 1 µM (SAPK2a(h)) was 9%, the inhibition at 1 µM (SIK3(h)) was 22% and the inhibition at 1 µM (TGFBR2(h)) was 30%. The inhibition at 1 µM (TSSK1(h)) was 60%, the inhibition at 1 µM (WNK1(h)) was 12% and the inhibition at 1 µM (ZAP-70(h)) was 1%. For the same molecule, the inhibition at 1 µM (c-RAF(h)) was 65% and the inhibition at 1 µM (p70S6Kβ(h)) was 15%.

— PMC11842588, “A first-in-class selective inhibitor of ERK1/2 and ERK5 overcomes drug resistance with a single-molecule strategy” (Signal Transduction and Targeted Therapy, 2025)
